Molecular target: T1, KCNQ2/3 channels (Homo sapiens, UniProt O43525+O43526)
T1 construct: expressed in transfected cells; host or cells: CHO-K1
Assay: Fluorescence assay using a voltage-sensitive dye (fluorimetry)
Format: cell-based
Settings: CHO-K1 cells expressing KCNQ2/3; for EC50: agonistic activity; for Emax: read-out: Fluorimetry % efficacy (I/EC50, retigabine = 100%); for IC50: antagonistic activity
Protocol: Pharmacological Experiments Fluorescence Assay Using a Voltage-Sensitive Dye
Human CHO-K1 cells expressing KCNQ2/3 channels are cultivated adherently at 37° C., 5% CO2 and 95% humidity in cell culture bottles (e.g. 80 cm^2 TC flasks, Nunc) with DMEM-high glucose (Sigma Aldrich, D7777) including 10% FCS (PAN Biotech, e.g. 3302-P270521) or alternatively MEM Alpha Medium (1×, liquid, Invitrogen, #22571), 10% foetal calf serum (FCS) (Invitrogen, #10270-106, heat-inactivated) and the necessary selection antibiotics.
Before being seeded out for the measurements, the cells are washed with a 1×DPBS buffer without Ca^2+/Mg^2+ (e.g. Invitrogen, #14190-094) and detached from the bottom of the culture vessel by means of Accutase (PAA Laboratories, #L11-007) (incubation with Accutase for 15 min at 37° C.). The cell count then present is determined using a CASY™ cell counter (TCC model, Schärfe System) in order subsequently to apply 20,000 to 30,000 cells/well/100 μl of the described nutrient medium, depending on density optimisation for the individual cell line, to 96-well measuring plates of the Corning™ CellBIND™ type (flat clear-bottom black polystyrene microplates, #3340). Incubation is then carried out for one hour at room temperature, without gassing or adjusting the humidity, followed by incubation for 24 hours at 37° C., 5% CO2 and 95% humidity.
The voltage-sensitive fluorescent dye from the Membrane Potential Assay Kit (Red™ bulk format part R8123 for FLIPR, MDS Analytical Technologies™) is prepared by dissolving the contents of a vessel of Membrane Potential Assay Kit Red Component A in 200 ml of extracellular buffer (ES buffer, 120 mM NaCl, 1 mM KCl, 10 mM HEPES, 2 mM CaCl2, 2 mM MgCl2, 10 mM glucose; pH 7.4). After removal of the nutrient medium, the cells are washed with 200 μl of ES buffer, then covered with a layer of 100 μl of the dye solution prepared above and incubated for 45 min at room temperature with exclusion of light.
The fluorescence measurements are carried out with a BMG Labtech FLUOstar™, BMG Labtech NOVOstar™ or BMG Labtech POLARstar™ instrument (525 nm excitation, 560 nm emission, bottom-read mode). After incubation of the dye, 50 μl of the substances to be tested in the desired concentrations, or 50 μl of ES buffer for control purposes, are introduced into separate cavities of the measuring plate and incubated for 30 min at room temperature whilst being shielded from light. The fluorescence intensity of the dye is then measured for 5 min and the fluorescence value F1 of each well is thus determined at a given, constant time. 15 μl of a […] KCl solution […] are then added to each well. The change in fluorescence is subsequently measured until all relevant measured values have been obtained (mainly […]). At a given time after KCl application, a fluorescence value F2 is determined, in this case at the time of the fluorescence peak.
For calculation, the fluorescence intensity F2 is compared with the fluorescence intensity F1, and the agonistic activity of the target compound on the potassium channel is determined therefrom. F2 and F1 are calculated as follows: […]
In order to determine whether a substance has an agonistic activity,
[formula] is determined by adding to the reaction batch only the buffer solution instead of the substance to be tested, determining the value F1K of the fluorescence intensity, adding the potassium ions as described above and measuring a value F2K of the fluorescence intensity. Then F2K and F1K are calculated as follows: […]
A substance has an agonistic activity on the potassium channel if
Independently of the comparison of
[formula] it is also possible to conclude that a target compound has an agonistic activity if an increase in
[formula] is to be observed as the dosage of the target compound increases.
Calculations of EC50 values are carried out with the aid of Prism v4.0 software (GraphPad Softwares™).

[1] = relative to retigabine = 100%, negative values = antagonistic

| SMILES | EC50 [nM] | Emax [1] [%] | IC50 [nM] | Fluorimetry % efficacy (I/EC50, retigabine = 100%) [1] [%] |
| --- | --- | --- | --- | --- |
| O=C(Cc1ccc2ccccc2c1)Nc1cccnc1SCCS(=O)(=O)c1cccc(C(F)(F)F)c1 [Example 24, 2-Naphthalen-2-yl-N-[2-[2-[[3-(trifluoromethyl)phenyl]sulfonyl]-ethylsulfanyl]-pyridin-3-yl]acetamide] | 153 | 84 |  |  |
| O=C(CC1CCCCC1)Nc1cccnc1SCCS(=O)(=O)c1cccc(C(F)(F)F)c1 [Example 2, 2-Cyclohexyl-N-[2-[2-[[3-(trifluoromethyl)phenyl]sulfonyl]-ethylsulfanyl]-pyridin-3-yl]acetamide] | 27 | 142 |  |  |
| O=C(CC1CC2CCC1C2)Nc1cccnc1SCCS(=O)(=O)c1cccc(C(F)(F)F)c1 (centres unmarked) [Example 62, 2-(5-Bicyclo[2.2.1]heptanyl)-N-[2-[2-[[3-(trifluoromethyl)phenyl]sulfonyl]-ethylsulfanyl]-pyridin-3-yl]acetamide] | 23.5 | 168 |  |  |
| O=C(Cc1cccc(O)c1)Nc1cccnc1SCCS(=O)(=O)c1cccc(C(F)(F)F)c1 [Example 37, 2-(3-Hydroxyphenyl)-N-[2-[2-[[3-(trifluoromethyl)phenyl]sulfonyl]-ethylsulfanyl]-pyridin-3-yl]acetamide] |  | 31 |  |  |
| O=C(Cc1ccncc1)Nc1cccnc1SCCS(=O)(=O)c1cccc(C(F)(F)F)c1 [Example 36, 2-Pyridin-4-yl-N-[2-[2-[[3-(trifluoromethyl)phenyl]sulfonyl]-ethylsulfanyl]-pyridin-3-yl]acetamide] |  | 38 |  |  |
| CC(C)(C)CC(=O)Nc1cccnc1SCCSc1ccc(F)cc1 [Example 61, N-[2-[2-[(4-Fluorophenyl)sulfanyl]-ethylsulfanyl]-pyridin-3-yl]-3,3-dimethyl butyramide] | 27.5 | 129 |  |  |
| O=C(Nc1cccnc1SCCS(=O)(=O)c1ccccc1)c1ccc(F)c(F)c1 [Example 5, N-[2-[2-(Benzenesulfonyl)-ethylsulfanyl]-pyridin-3-yl]-3,4-difluorobenzamide] | 469 | 129 |  |  |
| O=C(Nc1cccnc1SCCS(=O)(=O)c1cccc(C(F)(F)F)c1)C1CCCCC1 [Example 19, N-[2-[2-[[3-(Trifluoromethyl)phenyl]sulfonyl]-ethylsulfanyl]-pyridin-3-yl]-cyclohexane carboxylic acid amide] |  | -43 |  |  |
| O=C(Nc1cccnc1SCCS(=O)(=O)c1cccc(C(F)(F)F)c1)c1cccs1 [Example 18, N-[2-[2-[[3-(Trifluoromethyl)phenyl]sulfonyl]-ethylsulfanyl]-pyridin-3-yl]-thiophene-2-carboxylic acid amide] | 457 | 43 |  |  |
| Cc1cc(C)cc(C(C)C(=O)Nc2cccnc2SCCS(=O)(=O)c2ccccc2)c1 (centres unmarked) [Example 8, N-[2-[2-(Benzenesulfonyl)-ethylsulfanyl]-pyridin-3-yl]-2-(3,5-dimethylphenyl)propionamide] |  | -68 | 322 |  |
| O=C(CC1CCCCC1)Nc1cccnc1SCCS(=O)(=O)c1ccccc1 [Example 1, N-[2-[2-(Benzenesulfonyl)-ethylsulfanyl]-pyridin-3-yl]-2-cyclohexyl acetamide] | 95 | 172 |  |  |
| O=C1CCCC(CC(=O)Nc2cccnc2SCCS(=O)(=O)c2cccc(C(F)(F)F)c2)C1 (centres unmarked) [Example 55, 2-(3-Oxocyclohexyl)-N-[2-[2-[[3-(trifluoromethyl)phenyl]sulfonyl]-ethylsulfanyl]-pyridin-3-yl]acetamide] | 3600 | 84.8 |  |  |
| O=C(Cc1cccs1)Nc1cccnc1SCCCc1ccccc1 [Example 33, N-[2-(3-Phenyl-propylsulfanyl)-pyridin-3-yl]-2-thiophen-2-yl acetamide] | 141 | 106 |  |  |
| O=C(Cc1cccs1)Nc1cccnc1SCCOc1ccccc1 [Example 45, N-[2-(2-Phenoxy-ethylsulfanyl)-pyridin-3-yl]-2-thiophen-2-yl acetamide] |  |  |  | 58 |
| COc1ccccc1CC(=O)Nc1cccnc1SCCS(=O)(=O)c1cccc(C(F)(F)F)c1 [Example 9, 2-(2-Methoxyphenyl)-N-[2-[2-[[3-(trifluoromethyl)phenyl]sulfonyl]-ethylsulfanyl]-pyridin-3-yl]acetamide] |  | -45 | 192 |  |
| O=C(CC1CCCCC1)Nc1cccnc1SCCSc1ccccc1 [Example 44, 2-Cyclohexyl-N-[2-(2-phenylsulfanyl-ethylsulfanyl)-pyridin-3-yl]acetamide] | 153 | 80 |  |  |
| O=C(Cc1cccs1)Nc1cccnc1SCCSc1ccccc1 [Example 21, N-[2-(2-Phenylsulfanyl-ethylsulfanyl)-pyridin-3-yl]-2-thiophen-2-yl acetamide] | 83 | 152 |  |  |
| O=C(Cc1cccs1)Nc1cccnc1SCCCc1cccc(C(F)(F)F)c1 [Example 23, 2-Thiophen-2-yl-N-[2-[3-[3-(trifluoromethyl)phenyl]-propylsulfanyl]-pyridin-3-yl]acetamide] | 157 | 165 |  |  |
| CC(C)(C)CC(=O)Nc1cccnc1SCCCc1ccc(F)cc1 [Example 66, N-[2-[3-(4-Fluorophenyl)-propylsulfanyl]-pyridin-3-yl]-3,3-dimethyl butyramide] | 184 | 176 |  |  |
| O=C(Cc1cc2ccccc2s1)Nc1cccnc1SCCS(=O)(=O)c1cccc(C(F)(F)F)c1 [Example 59, 2-(Benzo[b]thiophen-2-yl)-N-[2-[2-[[3-(trifluoromethyl)phenyl]sulfonyl]-ethylsulfanyl]-pyridin-3-yl]acetamide] | 925 | 139 |  |  |
| O=C(CC1CCCCCC1)Nc1cccnc1SCCS(=O)(=O)c1ccc(F)cc1 [Example 67, 2-Cycloheptyl-N-[2-[2-[(4-fluorophenyl)sulfonyl]-ethylsulfanyl]-pyridin-3-yl]acetamide] | 18 | 114 |  |  |
| O=C(Nc1cccnc1SCCS(=O)(=O)c1cccc(C(F)(F)F)c1)C1CCCOC1 (centres unmarked) [Example 38, N-[2-[2-[[3-(Trifluoromethyl)phenyl]sulfonyl]-ethylsulfanyl]-pyridin-3-yl]-tetrahydropyrane-3-carboxylic acid amide] |  | 35 |  |  |
| O=C(CCC1CCCCC1)Nc1cccnc1SCCS(=O)(=O)c1ccccc1 [Example 6, N-[2-[2-(Benzenesulfonyl)-ethylsulfanyl]-pyridin-3-yl]-3-cyclohexyl propionamide] | 76 | 225 |  |  |
| O=C(Nc1cccnc1SCCS(=O)(=O)c1cccc(C(F)(F)F)c1)C(F)(F)C1CCCCC1 [Example 68, 2-Cyclohexyl-2,2-difluoro-N-[2-[2-[[3-(trifluoromethyl)phenyl]sulfonyl]-ethylsulfanyl]-pyridin-3-yl]acetamide] | 22 | 79 |  |  |
| O=C(Nc1cccnc1SCCOc1ccc(F)cc1)c1ccc(F)c(F)c1 [Example 64, 3,4-Difluoro-N-[2-[2-(4-fluorophenoxy)-ethylsulfanyl]-pyridin-3-yl]benzamide] | 200 | 49 |  |  |
| O=C(Nc1cccnc1SCCS(=O)(=O)c1cccc(C(F)(F)F)c1)c1ccc(F)cc1O [Example 51, 4-Fluoro-2-hydroxy-N-[2-[2-[[3-(trifluoromethyl)phenyl]sulfonyl]-ethylsulfanyl]-pyridin-3-yl]benzamide] | 106 | 32 |  |  |
